“Also recorded” adds a separate entry of the source.
How the values were obtained:
Golgi = assay: Fluorescence quantification of 3D images: drug-induced Golgi reorganization; format: cell-based, human; details: GFP channel intensity summed over z-stack, 30-minute intervals, vs DMSO
From the text: (§1) The pipeline was prototyped using a small suite of well-characterized compounds that include brefeldin A, paclitaxel, rapamycin, wortmannin and staurosporine (FIG. 26A). Low-resolution imaging (24× magnification) was used to test a matrix of concentrations and time points for each compound of interest to establish an initial set of conditions for each perturbation. hiPSC colonies were monitored for morphologic changes using transmitted light (FIG. 26B) and an endogenously GFP-tagged structure, such as microtubules (FIG. 26C). After establishing an end point response for several compounds, high-resolution (120× magnification) imaging of multiple cell lines was performed under standardized perturbation parameters, in the presence of dyes to label the nucleus and cell membrane for reference purposes (FIG. 27). […] Cells were treated with the indicated perturbation agent at a pre-selected concentration and time point established in phase I.
(§2) Fluorescence quantification of the 3D images were used to analyze drug-induced Golgi reorganization, cytoskeleton reorganization, and cell junction reorganization. To quantify the relative abundance of each structure of interest (e.g. Golgi as presented above), the pixel intensities of the GFP channel (488 nm) were summed across the entire z-stack. […]

actin = assay: Image-based drug perturbation of GFP-tagged hiPSC lines: actin; format: cell-based, human
From the text: as §1, §2

myosin = assay: Relative fluorescence quantification and z-axis intensity profiling: myosin; format: cell-based, human; details: for myosin organization through the thickness of the cell: z-axis intensity profiling
From the text: as §1
Fluorescence quantification of the 3D images were used to analyze drug-induced Golgi reorganization, cytoskeleton reorganization, and cell junction reorganization. To quantify the relative abundance of each structure of interest (e.g. Golgi as presented above), the pixel intensities of the GFP channel (488 nm) were summed across the entire z-stack. For each experiment, the same threshold was used to exclude background intensity noise across the control (DMSO) and experimental (perturbation agent) groups. The data were plotted by averaging z-stack data from a time interval (30-minute) and compared to the control DMSO data. Dunnett's multiple comparison test was used to perform one-way ANOVA between the different time intervals against the control group.

ZO-1 = assay: Z-axis intensity profiling of 3D images: cell junction reorganization (ZO-1); format: cell-based, human; details: x-z maximum intensity projection, intensity profile plot
From the text: (§3) The pipeline was prototyped using a small suite of well-characterized compounds that include brefeldin A, paclitaxel, rapamycin, wortmannin and staurosporine (FIG. 26A). Low-resolution imaging (24× magnification) was used to test a matrix of concentrations and time points for each compound of interest to establish an initial set of conditions for each perturbation. hiPSC colonies were monitored for morphologic changes using transmitted light (FIG. 26B) and an endogenously GFP-tagged structure, such as microtubules (FIG. 26C). After establishing an end point response for several compounds, high-resolution (120× magnification) imaging of multiple cell lines was performed under standardized perturbation parameters, in the presence of dyes to label the nucleus and cell membrane for reference purposes (FIG. 27). […]
(§4) For drug-induced effects on cell junction reorganization, representative maximum intensity projections of a z-stack along the x-z axis are shown in FIG. 30. From these projections, the mean pixel intensity for the GFP channel along the x-axis, from the top of the image to the bottom, was measured to generate an intensity profile plot. […] To analyze the change in desmosome number, the number of 3D objects in a z-stack were counted using the 3D Object Counter tool in Fiji. […] Data were analyzed by Student's t-test (** p<0.01).

hiPSC colonies = assay: Image-based drug perturbation of hiPSC colonies: colony and cell morphology; parameters: species or system human
From the text: as §1

desmosomes = assay: Image-based drug perturbation of GFP-tagged hiPSC lines: desmosomes (3D object count); format: cell-based, human
From the text: as §3, §4

cell junctions = assay: Image-based drug perturbation of GFP-tagged hiPSC lines: cell junctions; parameters: species or system human
From the text: as §1

ER = assay: Image-based drug perturbation of GFP-tagged hiPSC lines: ER; format: cell-based, human; details: hiPS cells undergoing mitosis
From the text: as §1

microtubules = assay: Image-based drug perturbation of GFP-tagged hiPSC lines: microtubules; format: cell-based, human
From the text: as §1, §2

[1] = 3D fluorescence quantification vs DMSO

Question: Which “effect on Golgi organization” value (Golgi) does the source give for (S)-nitro blebbistatin here?
Answer: induced fragmentation of the organelle

Question: And the “relative actin protein abundance and organization” value (actin; [1])?
Answer: reorganization and relative decrease

Question: What about the “relative myosin protein abundance and organization” value (myosin; [1]) of the same compound?
Answer: reorganization and relative decrease

Question: And the “myosin organization through the thickness of the cell” value (myosin)?
Answer: induced reorganization of the myosin

Question: And the “distribution of ZO-1 along the z-axis” value (ZO-1)?
Answer: redistribution of ZO-1 along the z-axis

Question: Which results are given for `CN[C@@H]1C[C@H]2O[C@@](C)([C@@H]1OC)n1c3ccccc3c3c4c(c5c6ccccc6n2c5c31)C(=O)NC4` [staurosporine]?
Answer: effect on colony and cell morphology (hiPSC colonies): major effects on colony and cell morphology, inducing rearrangements in cell packing and shape; number of DSP-positive plaques (desmosomes; 3D Object Counter, Student's t-test p<0.01): increased in number; effect on desmosome localization (desmosomes; GFP-tagged hiPSC): induced re-localization of desmosomes; also recorded: desmosomes relocalized throughout the cell; myosin organization through the thickness of the cell (myosin): induced reorganization of the myosin; distribution of ZO-1 along the z-axis (ZO-1): redistribution of ZO-1 along the z-axis

Question: How did the “effect on bulk organization of cell junctions” value (cell junctions) turn out when `CC(=O)O[C@H]1C(=O)[C@@]2(C)[C@H]([C@H](OC(=O)c3ccccc3)[C@]3(O)C[C@H](OC(=O)[C@H](O)[C@@H](NC(=O)c4ccccc4)c4ccccc4)C(C)=C1C3(C)C)[C@]1(OC(C)=O)CO[C@@H]1C[C@@H]2O` [paclitaxel] was run?
Answer: minimal effects

Question: And the “effect on organization of the ER” value (ER)?
Answer: induced aberrant reorganization of the ER

Question: And the “effect on bulk organization of the actin bundles” value (actin; GFP-tagged hiPSC)?
Answer: minimal effects

Question: What about the “effect on microtubule organization” value (microtubules; GFP-tagged hiPSC, high-resolution (120x) imaging, vs DMSO control) of the same compound?
Answer: increased microtubule bundle thickness and altered the shape and position of the mitotic spindle; also recorded: stabilized the microtubules

Question: What about the “microtubule relative localized fluorescence intensity” value (microtubules; over time, vs DMSO) of the same compound?
Answer: trend of increased relative localized fluorescence intensity over time

Question: With `C[C@H]1CCC/C=C/[C@@H]2C[C@H](O)C[C@H]2[C@H](O)/C=C/C(=O)O1` [Brefeldin A, brefeldin A] as the compound, how does the “effect on Golgi organization” value (Golgi) read?
Answer: induced dissociation of the golgi within 30 minutes
